From patent publication US8946268B2, “Modulators of HEC1 activity and methods therefor” (Taivex Therapeutics, Inc., priority 2010, dated 2015)

What was measured:
Format in all cases: cell-based
[1] = system: Hela; assay: Antiproliferative activity (MTS assay), Hela; details: Hela cells
Method: (§1) Antiproliferative effect is expressed as IC50 values in microMolar final concentration.
(§2) Cells were grown at 37° C. in a humidified atmosphere with 5% CO2 and 95% air. Cells were seeded in 96 well tissue culture plates.
(§3) Compound treatment started after overnight incubation of cells (TO). […] Compound was added to the plate in triplicate wells, and the plates were then incubated for 96 hours. DMSO (compounds diluents) was also included and added to the plate in control wells. Cell viability was then determined by MTS assay using CellTiter 96® AQueous non-radioactive cell proliferation assay system (Promega). A plate reader (Molecular Devices, Vmax) was used to read the optical densities, and the results were used to deduce concentration-response curves. […] The results were analyzed using linear regression software (GraphPad Prism 5; GraphPad Software Inc.).
(§4) The GI50 values (growth inhibitory activity) were determined to emphasize on the correction for the cell count at time zero; thus, the % inhibition of test drug were: [1−(T−T0)/(C−T0)]×100; and these value were used to plot the concentration-response curves, and then analyzed with linear regression software (GraphPad Prism 5).

[2] = system: K562; assay: Antiproliferative activity (MTS assay), K562; details: K562 cells
Method: as §1, §2, §3, §4

[3] = system: MDA-MB-468; assay: Antiproliferative activity (MTS assay), MDA-MB-468; details: MDA-MB-468 cells
Method: as §1, §2, §3, §4

[4] = system: MDA-MB-231; assay: Antiproliferative activity (MTS assay), MDA-MB-231; details: MDA-MB-231 cells
Method: as §1, §2, §3, §4

| Compound | IC50 ([1]; Homo sapiens, HeLa, 96 h) [µM] | IC50 ([2]; Homo sapiens, K562, 96 h) [µM] | IC50 ([3]; Homo sapiens, MDA-MB-468, 96 h) [µM] | IC50 ([4]; Homo sapiens, MDA-MB-231, 96 h) [µM] | IC50 ([1]; 96 hours) [µM] | IC50 ([2]; 96 hours) [µM] | IC50 ([3]; 96 hours) [µM] | IC50 ([4]; 96 hours) [µM] |
| --- | --- | --- | --- | --- | --- | --- | --- | --- |
| CCOc1cc(C)c(-c2csc(NC(=O)c3ccnc(Cl)c3)n2)c(C)c1 [Compound 66] | 0.2 | 0.21 | 0.24 | 0.11 | – | – | – | – |
| COc1ccc(CCC(=O)Nc2nc(-c3ccc(OC)cc3F)cs2)cc1 [Compound 22] | > 10 | > 10 | 4.19 | > 10 | – | – | – | – |
| Cc1cc(C)c(-c2csc(NC(=O)c3cncs3)n2)c(C)c1 [Compound 9] | 1.51 | 2.68 | 1.83 | 1.24 | – | – | – | – |
| COc1cc(-c2csc(NC(=O)c3ccncc3)n2)cc(OC)c1OC [Compound 27] | > 10 | > 10 | > 10 | > 10 | – | – | – | – |
| COc1ccc(-c2nc(NC(=O)c3cccnc3)sc2C)cc1 [Compound 14] | > 10 | > 10 | > 10 | > 10 | – | – | – | – |
| COc1ccc(-c2csc(NC(=O)c3ccncc3)n2)c(OC)c1 [Compound 13] | > 10 | > 10 | > 10 | > 10 | – | – | – | – |
| Cc1sc(NC(=O)c2ccncc2)nc1-c1ccccc1 [Compound 2] | > 10 | > 10 | 8.15 | > 10 | – | – | – | – |
| COc1cc(-c2csc(NC(=O)c3ccsc3)n2)ccc1O [Compound 49] | > 10 | > 10 | > 10 | > 10 | – | – | – | – |
| COc1ccc(-c2csc(NC(=O)c3ccccn3)n2)c(OC)c1 [Compound 18] | > 10 | > 10 | > 10 | > 10 | – | – | – | – |
| O=C(Nc1nc(-c2ccc(O)cc2)cs1)c1ccncc1 [Compound 57] | > 10 | > 10 | > 10 | > 10 | – | – | – | – |
| COc1ccc(-c2csc(NC(=O)c3ccnc(Cl)c3)n2)cc1F [Compound 63] | > 10 | > 10 | > 10 | > 10 | – | – | – | – |
| COc1cc(C)c(-c2csc(NC(=O)Nc3ccncc3)n2)c(C)c1 [Compound 67] | > 10 | 0.82 | 0.78 | 0.57 | – | – | – | – |
| COc1ccccc1CC(=O)Nc1nc(-c2ccccc2)c(C)s1 [Compound 41] | > 10 | > 10 | > 10 | > 10 | – | – | – | – |
| Cc1sc(NC(=O)c2cccnc2)nc1-c1ccccc1 [Compound 3] | > 10 | > 10 | > 10 | > 10 | – | – | – | – |
| COc1ccc(-c2csc(NC(=O)c3ccncc3)n2)c(F)c1 [Compound 26] | > 10 | 2.43 | 2.25 | 6.85 | – | – | – | – |
| COc1ccc(-c2csc(NC(=O)c3cccnc3)n2)cc1 [Compound 37] | > 10 | > 10 | > 10 | > 10 | – | – | – | – |
| Cc1ccc(-c2csc(NC(=O)c3ccc(C#N)cc3)n2)cc1 [Compound 7] | > 10 | > 10 | > 10 | > 10 | – | – | – | – |

| Compound | IC50 ([1]; Homo sapiens, HeLa, 96 h) [µM] | IC50 ([2]; Homo sapiens, K562, 96 h) [µM] | IC50 ([3]; Homo sapiens, MDA-MB-468, 96 h) [µM] | IC50 ([4]; Homo sapiens, MDA-MB-231, 96 h) [µM] | IC50 ([1]; 96 hours) [µM] | IC50 ([2]; 96 hours) [µM] | IC50 ([3]; 96 hours) [µM] | IC50 ([4]; 96 hours) [µM] |
| --- | --- | --- | --- | --- | --- | --- | --- | --- |
| Cc1ccc(-c2nc(NC(=O)c3cccnc3)sc2C)cc1 [Compound 31] | > 10 | > 10 | > 10 | > 10 | – | – | – | – |
| COc1ccc(-c2nc(NC(=O)c3ccncc3)sc2C)cc1 [Compound 10] | > 10 | > 10 | 8.89 | 8.03 | – | – | – | – |
| COc1ccc(-c2nc(NC(=O)c3ccccn3)sc2C)cc1 [Compound 16] | > 10 | > 10 | > 10 | > 10 | – | – | – | – |
| Cc1cc(C)c(-c2csc(NC(=O)c3ccnc(Cl)c3)n2)c(C)c1 [Compound 81] | – | – | – | – | 0.86 | 0.79 | 0.82 | 0.72 |
| COc1cc(OC)c(-c2csc(NC(=O)c3ccncc3)n2)c(OC)c1 [Compound 11] | > 10 | > 10 | > 10 | > 10 | – | – | – | – |
| CC(=O)Nc1cc(C)c(-c2csc(NC(=O)Nc3ccncc3)n2)c(C)c1 [Compound 68] | 5.13 | 4.96 | 3.61 | 4.24 | – | – | – | – |
| COc1cc(-c2csc(NC(=O)c3cccnc3)n2)cc(OC)c1OC [Compound 20] | > 10 | > 10 | > 10 | > 10 | – | – | – | – |
| COc1cc(-c2csc(NC(=O)c3ccncc3)n2)ccc1O [Compound 34] | > 10 | > 10 | > 10 | > 10 | – | – | – | – |
| Cc1cc(C)c(-c2csc(NC(=O)c3ccnnc3)n2)c(C)c1 [Compound 8] | 8.75 | 5.6 | 6.18 | 3.12 | – | – | – | – |
| COc1cc(-c2csc(NC(=O)c3ccnnc3)n2)ccc1O [Compound 47] | > 10 | > 10 | > 10 | > 10 | – | – | – | – |
| CCOc1cc(C)c(-c2csc(NC(=O)c3ccnc(F)c3)n2)c(C)c1 [Compound 70] | 0.03 | 0.16 | 0.21 | 0.11 | – | – | – | – |
| COc1cc(-c2csc(NC(=O)c3ccccn3)n2)cc(OC)c1OC [Compound 25] | > 10 | > 10 | > 10 | > 10 | – | – | – | – |
| COc1ccc(Oc2cc(C)c(-c3csc(NC(=O)c4ccncc4)n3)c(Cl)c2)cc1 [Compound 131] | 0.06 | 0.04 | 0.05 | 0.04 | – | – | – | – |
| COc1cc(C)c(-c2csc(NC(=O)c3cc[n+]([O-])cc3)n2)c(C)c1 [Compound 72] | 2.7 | 5.4 | 4.81 | 4.28 | – | – | – | – |
| Cc1cc(C)c(-c2csc(NC(=O)c3ccncc3F)n2)c(C)c1 [Compound 77] | 2.29 | 2.82 | 2.78 | 1.22 | – | – | – | – |
| O=C(Nc1nc(-c2ccc(O)cc2)cs1)c1ccncn1 [Compound 58] | > 10 | > 10 | > 10 | > 10 | – | – | – | – |

Continued, values first:

| IC50 ([1]; Homo sapiens, HeLa, 96 h) [µM] | IC50 ([2]; Homo sapiens, K562, 96 h) [µM] | IC50 ([3]; Homo sapiens, MDA-MB-468, 96 h) [µM] | IC50 ([4]; Homo sapiens, MDA-MB-231, 96 h) [µM] | IC50 ([1]; 96 hours) [µM] | IC50 ([2]; 96 hours) [µM] | IC50 ([3]; 96 hours) [µM] | IC50 ([4]; 96 hours) [µM] | Compound |
| --- | --- | --- | --- | --- | --- | --- | --- | --- |
| > 10 | 0.45 | 3.29 | 2.21 | – | – | – | – | Cc1cc(C)c(-c2csc(NC(=O)c3ccnc(N(C)C)c3)n2)c(C)c1 [Compound 92] |
| > 10 | 1.4 | 4.66 | 6.06 | – | – | – | – | Cc1cc(C)c(-c2csc(NC(=O)c3ccnc(N4CCCCC4)c3)n2)c(C)c1 [Compound 91] |
| 0.27 | 0.15 | 0.22 | 0.24 | – | – | – | – | Cc1cc(Cc2ccccc2)cc(C)c1-c1csc(NC(=O)c2ccncc2)n1 [Compound 118] |
| 0.24 | 0.19 | 0.16 | 0.16 | – | – | – | – | COc1ccc(Oc2cc(C)c(-c3csc(NC(=O)c4ccnc(N)c4)n3)c(C)c2)cc1 [Compound 128] |
| > 10 | 2.48 | 2.17 | 1.11 | – | – | – | – | Cc1cc(C)c(-c2csc(NC(=O)/C=C/c3cccnc3)n2)c(C)c1 [Compound 103] |
| > 10 | > 10 | > 10 | 4.95 | – | – | – | – | Cc1cc(C)c(-c2csc(NC(=O)c3ccc4[nH]nnc4c3)n2)c(C)c1 [Compound 106] |
| 0.4 | 0.23 | 0.55 | 0.3 | – | – | – | – | Cc1cc(I)cc(C)c1-c1csc(NC(=O)c2ccncc2)n1 [Compound 114] |
| 0.87 | 0.33 | 0.88 | 0.61 | – | – | – | – | Cc1cc(Nc2ccccc2)c(Br)c(C)c1-c1csc(NC(=O)c2ccncc2)n1 [Compound 123] |
| 1.15 | 0.99 | 1.22 | 0.8 | – | – | – | – | Cc1cc(C)c(-c2csc(NC(=O)c3cc(F)nc(F)c3)n2)c(C)c1 [Compound 90] |
| 0.62 | 0.38 | 0.3 | 0.31 | – | – | – | – | Cc1cc(C)c(-c2csc(NC(=O)Cc3ccncc3)n2)c(C)c1 [Compound 93] |
| > 10 | > 10 | 8.02 | > 10 | – | – | – | – | Cc1cc(C)c(-c2csc(NC(=O)c3ccc4[nH]ncc4c3)n2)c(C)c1 [Compound 105] |
| 0.11 | 0.1 | 0.13 | 0.09 | – | – | – | – | COCCCOc1cc(C)c(-c2csc(NC(=O)c3ccncc3)n2)c(C)c1 [Compound 110] |
| 0.27 | 0.19 | 0.27 | 0.2 | – | – | – | – | COc1ccc(S(=O)(=O)c2cc(C)c(-c3csc(NC(=O)c4ccncc4)n3)c(C)c2)cc1 [Compound 129] |
| > 10 | > 10 | 28.8 | > 10 | – | – | – | – | Cc1cc(C)c(-c2csc(NC(=O)c3ccnc(N4CCN(C)CC4)c3)n2)c(C)c1 [Compound 84] |
| 3.26 | 9.11 | 3.11 | 8.3 | – | – | – | – | Cc1cc(OCC(O)CO)cc(C)c1-c1csc(NC(=O)c2ccncc2)n1 (stereo not shown) [Compound 97] |
| > 10 | > 10 | 8.2 | > 10 | – | – | – | – | CC(=O)Nc1cc(C(=O)Nc2nc(-c3c(C)cc(C)cc3C)cs2)ccn1 [Compound 89] |
